Data on 22 compounds can be found in patent US6143749A, “Heterocyclic substituted cyclopentane compounds” (Abbott Laboratories, priority 1996, dated 2000).

A value given as a limit tells only on which side of the number the result lay.

adenosine kinase (Homo sapiens, UniProt P55263), sequence (P55263 whole entry, species assumed): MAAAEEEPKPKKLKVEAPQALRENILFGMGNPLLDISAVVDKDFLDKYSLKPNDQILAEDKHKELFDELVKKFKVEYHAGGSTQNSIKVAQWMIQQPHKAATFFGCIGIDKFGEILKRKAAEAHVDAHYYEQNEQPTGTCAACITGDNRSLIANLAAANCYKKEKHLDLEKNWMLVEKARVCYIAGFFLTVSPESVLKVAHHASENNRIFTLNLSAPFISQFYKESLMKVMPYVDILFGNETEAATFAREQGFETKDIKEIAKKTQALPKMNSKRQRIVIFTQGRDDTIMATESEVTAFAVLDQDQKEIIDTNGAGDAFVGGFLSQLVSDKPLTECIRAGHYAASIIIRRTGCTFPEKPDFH

One assay has as its system adenosine kinase.
Experiment: not given
Particulars: literature, in words; cited from earlier work.
`C[C@H]1O[C@@H](n2cc(I)c3c(N)ncnc32)[C@H](O)[C@@H]1O` [5'-deoxy-5-iodotubercidin]: the “reported to inhibit adenosine kinase; the most potent” value (“reported to inhibit adenosine kinase” for short) is “most potent”. For `Nc1ncnc2c1c(I)cn2[C@@H]1O[C@H](CO)[C@@H](O)[C@H]1O` [5-iodotubercidin], the “reported to inhibit adenosine kinase” value is reported as “most potent”. In the case of `NC[C@H]1O[C@@H](n2cnc3c(N)ncnc32)[C@H](O)[C@@H]1O` [5'-amino,5'-deoxyadenosine], the “reported to inhibit adenosine kinase” value was “most potent”.

Another assay deals with adenosine kinase (Homo sapiens, UniProt P55263). Kind of assay: inhibition of adenosine kinase activity in vitro. It is filed as biochemical. Conditions: Table 1, adenosine kinase. An excerpt:
The adenosine kinase to be inhibited can be located in vitro, in situ or in vivo. Where the adenosine kinase is located in vitro, adenosine kinase is contacted with the inhibitor compound, typically by adding the compound to an aqueous solution containing the enzyme, radiolabeled substrate adenosine, magnesium chloride and ATP. The enzyme can exist in intact cells or in isolated subcellular fractions containing the enzyme. The enzyme is then maintained in the presence of the inhibitor for a period of time and under suitable physiological conditions. Means for determining maintainence times are well known in the art and depend inter alia on the concentrations of enzyme and the physiological conditions. Suitable physiological conditions are those necessary to maintain adenosine kinase viability and include temperature, acidity, tonicity and the like. Inhibition of adenosine kinase can be performed, by example, according to standard procedures well known in the art (Yamada, et al, Comp. Biochem. Physiol. 1982, 71B: 367-372).
In vitro adenosine kinase activity can be measured using any of the standard procedures well known in the art. By way of example, cells containing adenosine kinase, such as IMR-32 human -neuroblastoma cells, are cultured in the presence and absence of an inhibitor. Inhibition is measured as the ability to inhibit phosphorylation of endogenous or externally applied ^14 C-adenosine by these cells. The cells can be intact or broken. The specificity of adenosine kinase inhibitory activity is determined by studying the effects of inhibitors on adenosine A1 and A2a receptor binding, adenosine deaminase activity and adenosine transport.
Numerous inhibitor compounds of the present invention were tested in vitro and found to inhibit adenosine kinase activity. The results of some representative studies are shown below in Tables 1 and 2.
As a reminder, the IC50 is the concentration needed to halve the response being measured. Low readings indicate higher potency, high ones lower potency. As to `NC(=O)C[C@H](N[C@H]1C[C@@H](n2cc(I)c3c(Cl)ncnc32)[C@H](O)[C@@H]1O)C(=O)O`, the IC50 amounted to 48 nM. `CC(C)(C)OC(=O)[C@H](CC(N)=O)N[C@H]1C[C@@H](n2cc(I)c3c(Cl)ncnc32)[C@H](O)[C@@H]1O` registered an IC50 of 200 nM. `Nc1ncnc2c1c(I)cn2[C@@H]1C[C@H](Nc2ccc(Cl)nn2)[C@@H](O)[C@H]1O` came in with an IC50 of 20 nM. `Nc1ncnc2c1c(I)cn2[C@@H]1C[C@H](Nc2ncccn2)[C@@H](O)[C@H]1O`: half-maximal inhibition (IC50) required 38 nM.

In turn, `N[C@@H]1C=C[C@H](n2cc(I)c3c(Cl)ncnc32)C1` gave an IC50 of 3000 nM. Compared with the last compound, the IC50 is about 79-fold higher. In turn, `N[C@H]1C[C@@H](n2cc(-c3ccccc3)c3c(Nc4ccccc4)ncnc32)[C@H](O)[C@@H]1O` [drawing 14: R4=NH2; R5=NHPh; R6=Ph] had an IC50 of 35 nM. In turn, `O[C@@H]1[C@H](O)[C@@H](Nc2ccc(Br)cc2)C[C@H]1n1cc(I)c2c(Cl)ncnc21` came in with an IC50 of 15 nM. In turn, `CC(C)(C)OC(=O)CN[C@H]1C[C@@H](n2cc(I)c3c(Cl)ncnc32)[C@H](O)[C@@H]1O` [drawing 14: R4=t-buOCOCH2 NH; R5=Cl; R6=I, N7-((1'R,2'S,3'R,4'S)-2',3'-dihydroxy-4'-(t-butoxycarbonyl-methylene)amino-cyclopentyl)-4-chloro-5-iodo-pyrrolopyrimidine] showed an IC50 of 28 nM. Consider `N[C@@H]1CC[C@H](n2cc(I)c3c(Cl)ncnc32)C1`, for which the IC50 is 330 nM. Compound `CC(C)(C)OC(=O)[C@H](CC(N)=O)N([C@H]1C[C@@H](n2cc(I)c3c(Cl)ncnc32)[C@H](O)[C@@H]1O)S(=O)(=O)c1ccc([N+](=O)[O-])cc1[N+](=O)[O-]` showed a 50% inhibitory concentration (IC50) of 350 nM. The same measure, in the same setting: the result for `N[C@H]1C[C@@H](n2cc(C#Cc3ccccc3)c3c(C#Cc4ccccc4)ncnc32)[C@H](O)[C@@H]1O` [drawing 14: R4=NH2; R5=C≡C--Ph; R6=C≡C--Ph] reads 4 nM; that for `O=C(O)CN[C@H]1C[C@@H](n2cc(I)c3c(Cl)ncnc32)[C@H](O)[C@@H]1O` [drawing 14: R4=HO2 CCH2 NH; R5=Cl; R6=I, N7-((1'R,2'S,3'R,4'S)-2',3'-dihydroxy-4'-(carboxymethylene)amino-cyclopentyl)-4-chloro-5-iodo-pyrrolopyrimidine], 150 nM.

The same assay, now with this note: Table 2, adenosine kinase.
Compound `NCC(=O)N[C@H]1C[C@@H](n2cc(I)c3c(Cl)ncnc32)[C@H](O)[C@@H]1O` [drawing 27: R=NH2 CH2 CO, N7-((1'R,2'S,3'R,4'S)-2',3'-dihydroxy-4'-(amino-acetyl)amino-cyclopentyl)-4-chloro-5-iodo-pyrrolopyrimidine] displayed an IC50 of 32 nM.

In turn, `CC(=O)O[C@@H]1[C@H](OC(C)=O)[C@@H](OC(C)=O)C[C@H]1n1cc(I)c2c(Cl)ncnc21` [drawing 24: R5=Cl; R6=I, N7-((1'R,2'S,3'R,4'S)-2',3',4'-triacetoxycyclopentyl)-4-chloro-5-iodo-pyrrolopyrimidine] gave an IC50 greater than 100000 nM. Still for that read-out and setting: the result for `COC(=O)N[C@H]1C[C@@H](n2cc(I)c3c(Cl)ncnc32)[C@H](O)[C@@H]1O` [drawing 27: R=CH3 OCO, N7-((1'R,2'S,3'R,4'S)-2',3'-dihydroxy-4'-(methoxycarbonyl)amino-cyclopentyl)-4-chloro-5-iodo-pyrrolo-pyrimidine] reads 300 nM.

Compound `O=C(Cc1ccccn1)N[C@H]1C[C@@H](n2cc(I)c3c(Cl)ncnc32)[C@H](O)[C@@H]1O` showed an IC50 of 175 nM. As to `CN(C)CC(=O)N[C@H]1C[C@@H](n2cc(I)c3c(Cl)ncnc32)[C@H](O)[C@@H]1O` [drawing 27: R=(CH3)2 NCH2 CO, N7-((1'R,2'S,3'R,4'S)-2',3'-dihydroxy-4'-(dimethylaminoacetyl)amino-cyclopentyl)-4-chloro-5-iodo-pyrrolopyrimidine], the IC50 came to 480 nM. `CC(=O)O[C@@H]1[C@H](OC(C)=O)[C@@H](OC(C)=O)C[C@H]1n1cc(Cl)c2c(Cl)ncnc21` [drawing 24: R5=Cl; R6=Cl, N7-((1'R,2'S,3'R,4'S)-2',3',4'-triacetoxycyclopentyl)-4,5-dichloro-pyrrolopyrimidine]: the IC50 is greater than 10000 nM. As to `O=C(Cc1cccnc1)N[C@H]1C[C@@H](n2cc(I)c3c(Cl)ncnc32)[C@H](O)[C@@H]1O`, it took 250 nM to reach half-maximal inhibition (IC50).
